# In patent US20140221372A1, “METHOD OF ADMINISTRATION AND TREATMENT” (GlaxoSmithKline Intellectual Property (NO 2.) Limited, priority 2013, published 2014):
# “And” between values parts separate entries of the source, which are not always exact repeats. Equal entries are not always repeated.
# Key:
# Assay type in all cases: in vivo, human
# [1] = tested on: CAF (Cytokine and Angiogenic Factor) levels; test: Circulating pharmacodynamic markers: CAF time course, percent change from baseline (Searchlight platform)
# Experimental: (§1) Blood was collected at baseline (Day 1) and post treatment with 30 mg/daily of foretinib on Days 8, 15, and 22. CAF (Cytokine and Angiogenic Factor) levels were determined. CAF levels were determined by using the Searchlight platform (Aushon Biosciences). Levels of circulating sMET and HGF were determined using Meso Scale Discovery Platform (Don Bottaro, National Cancer Institute [NCI]). The biomarker analysis population was predefined to include patients who met the following criteria: • Patient is in a 30 mg cohort. • Pharmacodynamic (PD)-sample data available at baseline and for at least 1 post-baseline timepoint, and • Patient received at least 75% of planned doses up to time of last PD sample. CAF percent changes from baseline were assessed for each CAF, at each time point, for available data in the biomarker population, using the Wilcoxon Signed Rank Test.
# [2] = tested on: hepatocellular cancer (HCC) subjects; test: Pharmacogenetic analysis: association of genetic variants with TTP and OS in Asian HCC subjects receiving foretinib; conditions: foretinib 30 mg QD; for Median TTP: (95% CI)
# Experimental: Asian HCC subjects treated with the maximum tolerated dose (MTD) of 30 mg QD and provided informed consent and blood sample for PGx research (n=31 of 39 subjects treated) were selected for PGx analysis. Of the 31 subjects who provided consent, 28 subjects were evaluable for objective response rate (ORR) and 30 for time to progression (TTP) and overall survival (OS).
# Venous blood was collected from each PGx consented subject into an ethylenediaminetetraacetic acid (EDTA) vacutainer for PGx analysis. DNA was extracted using the Qiagen Autopure automated DNA extraction by Covance (Indianapolis, Ind., USA) and was genotyped for 20 single nucleotide polymorphisms (SNPs) with potential functional consequence from 13 candidate genes. The list of the genetic variants including their unique identifier (rs ID) and allele frequency in Asian population is included in Table 1. Genotyping of the SNPs was done via Sanger sequencing, or using custom TaqMan® SNP genotyping assays (Applied Biosystems, Foster City, Calif., USA) internally at GlaxoSmithKline or via TaqMan® custom or Assay on Demand genotyping assays (Applied Biosystems, Foster City, Calif., USA) by Gen-Probe (Wythenshawe, Manchester, UK).
# Association with ORR was evaluated using Fisher's Exact Test (FET). Association with TTP and OS was tested using time-to-event (progression) models, using the Score (log rank) test. Since one of the haplotypes CAT (a unique combination of ‘C’, ‘A’, and ‘T’ alleles of SNPs—rs2307424, rs2307418, and rs4073054, respectively) in gene NR1I3/CAR (nuclear receptor subfamily 1, group I, member 3/constitutive androstane receptor) was previously reported to be associated with worse progression-free survival in sunitinib-treated renal cell carcinoma subjects (Van der Veldt 2011), the 3 SNPs in NR1I3 (were analyzed separately and together as a haplotype for association with clinical endpoints (see Tables 1 and 2). Similarly, the 3 SNPs in ABCB1 (ATP-binding cassette, subfamily B, member 1) were also analyzed separately and together as a haplotype.
# Because of the limited sample size of the study, genetic analyses were performed without adjustment for baseline demographics or potential covariates, and p-values were not adjusted for multiple testing.
# [3] = tested on: hepatocellular carcinoma patients; test: Association between baseline (Day 1) CAF levels and TTP / OS in patients on foretinib
# Experimental: Blood was collected at baseline (Day 1) and post treatment with 30 mg/daily of foretinib on Days 8, 15, and 22. CAF (Cytokine and Angiogenic Factor) levels were determined. CAF levels were determined by using the Searchlight platform (Aushon Biosciences). Levels of circulating sMET and HGF were determined using Meso Scale Discovery Platform (Don Bottaro, National Cancer Institute [NCI]).
# The biomarker analysis population was predefined to include patients who met the following criteria: • Patient is in a 30 mg cohort. • Pharmacodynamic (PD)-sample data available at baseline and for at least 1 post-baseline timepoint, and • Patient received at least 75% of planned doses up to time of last PD sample.
# Association between day 1 CAF levels and TTP was assessed using univariate and multivariate (covariate adjusted) proportional hazards regression analysis. CAF data were transformed (log2) where appropriate.
# Association between day 1 CAF levels and OS was assessed using univariate and multivariate (covariate adjusted) proportional hazards regression analysis. CAF data were transformed (log2) where appropriate. For statistically significant CAF's in the OS statistical models, a combined model of the significant CAF's will be explored, in which an optimal predictive combination of the CAF's (including optimal cutoffs) will be investigated. The method employed to explore the CAF's will depend upon the number of significant CAF's, and will be described in the results section.
# sMET = test: Circulating sMET level, percent change from baseline (Meso Scale Discovery Platform); conditions: Day 8, 30 mg/daily
# Experimental: as §1
structure (smiles),measurement,setting,value
COc1cc2c(Oc3ccc(NC(=O)C4(C(=O)Nc5ccc(F)cc5)CC4)cc3F)ccnc2cc1OCCCN1CCOCC1 [foretinib],Clusterin Percent Change from baseline,"[1]; Day 8, 30 mg/daily",25%
same,FASL Percent Change from baseline,"[1]; Day 8, 30 mg/daily",26%
same,GCSF Percent Change from baseline,"[1]; Day 8, 30 mg/daily",46%
same,IGFBP3 Percent Change from baseline,"[1]; Day 8, 30 mg/daily",19%
same,IL6 Percent Change from baseline,"[1]; Day 8, 30 mg/daily",58%
same,PLGF Percent Change from baseline,"[1]; Day 8, 30 mg/daily",105%
same,TRAIL Percent Change from baseline,"[1]; Day 8, 30 mg/daily",25%
same,TSP2 Percent Change from baseline,"[1]; Day 8, 30 mg/daily",−14%
same,VCAM1 Percent Change from baseline,"[1]; Day 8, 30 mg/daily",28%
same,VEGF Percent Change from baseline,"[1]; Day 8, 30 mg/daily",61%
same,ANG2 Percent Change from baseline,"[1]; Day 15, 30 mg/daily",−24%
same,FASL Percent Change from baseline,"[1]; Day 15, 30 mg/daily",20%
same,IGFBP3 Percent Change from baseline,"[1]; Day 15, 30 mg/daily",13%
same,IL6 Percent Change from baseline,"[1]; Day 15, 30 mg/daily",124%
same,IL8 Percent Change from baseline,"[1]; Day 15, 30 mg/daily",20%
same,PLGF Percent Change from baseline,"[1]; Day 15, 30 mg/daily",130%
same,SCF Percent Change from baseline,"[1]; Day 15, 30 mg/daily",−14%
same,TRAIL Percent Change from baseline,"[1]; Day 15, 30 mg/daily",17%
same,TSP2 Percent Change from baseline,"[1]; Day 15, 30 mg/daily",−19%
same,VCAM1 Percent Change from baseline,"[1]; Day 15, 30 mg/daily",43%
same,VEGF Percent Change from baseline,"[1]; Day 15, 30 mg/daily",83%
same,VEGFR2 Percent Change from baseline,"[1]; Day 15, 30 mg/daily",−21%
same,ANG2 Percent Change from baseline,"[1]; Day 22, 30 mg/daily",−17%
same,Clusterin Percent Change from baseline,"[1]; Day 22, 30 mg/daily",23%
same,FASL Percent Change from baseline,"[1]; Day 22, 30 mg/daily",44%
same,IGFBP3 Percent Change from baseline,"[1]; Day 22, 30 mg/daily",17%
same,IL6 Percent Change from baseline,"[1]; Day 22, 30 mg/daily",111%
same,PLGF Percent Change from baseline,"[1]; Day 22, 30 mg/daily",120%
same,TRAIL Percent Change from baseline,"[1]; Day 22, 30 mg/daily",24%
same,VCAM1 Percent Change from baseline,"[1]; Day 22, 30 mg/daily",64%
same,VEGF Percent Change from baseline,"[1]; Day 22, 30 mg/daily",83%
same,VEGFR2 Percent Change from baseline,"[1]; Day 22, 30 mg/daily",−21%
same,Median TTP,[2]; ABCB1 rs1045642 TC or TT genotype,8 months and 8.21 (2.17-NE) months
same,median OS,[2]; NR1I3 CAT/CAT,5.9 months
same,Median TTP,"[2]; NR1I3 CAT/− or −/− (1 or no copy, other haplotypes)",6.21 (2.96-NE) months
same,Median TTP,[2]; NR1I3 haplotype CAT/CAT (2 copies),1.92 (1.51-NE*) months
same,median OS,[2]; NR1I3 other haplotypes,8.5 months
same,"longer TTP, lower vs higher levels of IL6","[3]; median split of baseline IL6 levels, 30 mg cohort",~6.7 month
same,deaths,[3]; patients in the highest quartile of baseline IL6,10/10
same,deaths,[3]; patients in the highest quartile of baseline IL8,9/10
same,deaths,[3]; patients in the lowest quartiles of baseline IL6 and IL8 (all patients censored),0/9
same,TTP,"[3]; patients with higher baseline levels of IL6 (median split), 30 mg cohort",2.9 months
same,TTP,"[3]; patients with lower baseline levels of IL6 (median split), 30 mg cohort",9.6 months
same,median survival,[3]; patients with unfavorable levels of IL6 and IL8 (group 1 in FIG. 6),6 months
same,sMET Percent Change from baseline,sMET,12%
